From US6689767B2, “Triterpenes having antibacterial activity” (Regents of the University of Minnesota, priority 2000, dated 2004)
Read-outs that look alike come from different tables or passages of the source.

Experiments:
Format in all cases: cell-based
Staphylococcus aureus = experiment: Kirby-Bauer disk diffusion growth inhibition, Staphylococcus aureus; details: for zone of inhibition at 0.125 µg/mL / zone of inhibition at 1000 µg/mL: Staphylococcus aureus; for zone of inhibition at 0.125 µg/mL: read-out: Zone of inhibition Staphylococcus aureus; for zone of inhibition at 1000 µg/mL: 1 mg/ml in DMSO
Description: (§1) The compounds disclosed herein were tested for growth inhibition against four strains of bacteria: Escherichia coli, Staphylococcus aureus, methicillin-resistant Staphylococcus aureus, and Bacillus subtilis. […] They represent […]. E. coli is a gram-negative, non-spore forming, rod-shaped, opportunistic pathogen that resides in the human digestive tract. S. aureus is a gram positive coccus, is usually found morphologically as a […], and is an opportunistic human pathogen, often residing on or in the skin. B. subtilis is a gram positive spore-forming rod. Its native environment is the soil. The chemicals were tested for growth-inhibition of the bacteria by the Kirby-Bauer method. See, e.g., Microbiology, third edition; Lansing M. Prescott, John P. Harley, and Donald A. Klein; Wm. C. Brown Publishers.
(§2) Mueller-Hinton agar (Difco Lab, Michigan) was prepared according to the manufacturer's directions, and 20 ml was dispensed in each sterile petri dish. Sterile nutrient broth (Difco Lab, Michigan) was also prepared according to the manufacturer's directions.
(§3) Bacteria were grown in liquid nutrient broth for 18 hours at 37° C. until they were turbid.
(§4) An aliquot of 0.5 ml of cultured bacteria was aseptically transferred to the surface of a Mueller-Hinton agar plat, and spread using a cotton-tipped swab. Plates were then allowed to dry for 5 minutes. Then a 10 mm diameter filter paper disk impregnated with the test chemical was placed with sterile forceps on the plate. The disks were impregnated with 100 μl of a solution of the test compound in DMSO or in water, at the indicated concentrations in Table 1.
(§5) The zones of inhibition were measured after 18 hours growth at 37° C. Tests were done in triplicate.
(§6) Additional compounds were tested for activity against E. coli, laboratory strain S. aureus (not methicillin resistant), and B. subtilis. The compounds were tested by the disk diffusion method, as in Example 1, with application of a 10 mg/mil solution of the test compound in DMSO.
Derivatives of lupeol were tested for inhibition of bacterial growth using the Kirby-Bauer disk diffusion method and by growth in liquid culture. For the disk diffusion method, compounds were dissolved in DMSO and 100 μl was added to the 10 mm filter paper disk. The amount of compound applied to the disk varied. The amount applied for each compound was as follows: lupeol (50 μg), lupeol-3-maleate (15 μg), lupeol-3-thiodiglycolate (15 μg), lupeol-3-dimethyl succinate (60 μg), lupeol-3-phosphate (30 μg), lupenone (50 μg), lupenon-3-oxime (50 μg), lupeol-3-amine (50 μg), lupenon-1,2-ene-2-ol (50 μg). In liquid culture, the compounds were dissolved in DMSO at 1 mg/ml and then 100 μl was added to 7 ml of sterile broth, along with a 1/200 dilution of freshly grown bacterial liquid culture.

Escherichia coli = experiment: Kirby-Bauer disk diffusion growth inhibition, Escherichia coli; details: for zone of inhibition at 0.125 µg/mL / zone of inhibition at 1000 µg/mL: Escherichia coli; for zone of inhibition at 0.125 µg/mL: read-out: Zone of inhibition Escherichia coli; for zone of inhibition at 1000 µg/mL: 1 mg/ml in DMSO
Description: as §1, §2, §3, §4, §5, §6

Bacillus subtilis = experiment: Kirby-Bauer disk diffusion growth inhibition, Bacillus subtilis; details: for zone of inhibition at 0.125 µg/mL / zone of inhibition at 1000 µg/mL: Bacillus subtilis; for zone of inhibition at 0.125 µg/mL: read-out: Zone of inhibition Bacillus subtilis; for zone of inhibition at 1000 µg/mL: 1 mg/ml in DMSO
Description: as §1, §2, §3, §4, §5, §6

[1] = 125 ng/ml in water, 100 μl on 10 mm disk, 18 hours 37° C.
[2] = 100 μl on 10 mm disk, 18 hours 37° C.
[3] = 5 mg/ml in DMSO, 100 μl on 10 mm disk, 18 hours 37° C.
[4] = 10 mg/ml in DMSO, 100 μl on 10 mm disk, 18 hours 37° C.

CC1(C)CCC23CC[C@@]4(C)C(CCC5[C@@]6(C)C=C(OC(=O)CCC(=O)O)C(=O)C(C)(C)C6CC[C@]54C)C2C1OC3 (stereo partly drawn) [3-Allobetulon-1-ene-2-succinate, 3-Allobetulon-1-en-2succinate]
0 mm: zone of inhibition at 0.125 µg/mL (Staphylococcus aureus; [1]) | zone of inhibition at 0.125 µg/mL (Escherichia coli; [1]) | zone of inhibition at 0.125 µg/mL (Bacillus subtilis; [1])

CC(=O)OC1CCC2(C)C(CCC3(C)C2CCC2C4C5OC(=O)C4(CCC5(C)C)CCC23C)C1(C)C (stereo not drawn) [3β-Acetoxy-19αH-19,28 lactone oleanan]
0 mm: Zone of inhibition Staphylococcus aureus (Staphylococcus aureus; [1]) | Zone of inhibition Escherichia coli (Escherichia coli; [1]) | Zone of inhibition Bacillus subtilis (Bacillus subtilis; [1])

CC1(C)CCC23CCC4(C)C(CCC5C6(C)CCC(OC(=O)CCCC(=O)O)C(C)(C)C6CCC54C)C2C1OC3 (stereo not drawn) [Allobetulin 3-glutarate, Allobetulin-3-glutarate]
0 mm: zone of inhibition at 0.125 µg/mL (Staphylococcus aureus; [1]) | zone of inhibition at 1000 µg/mL (Staphylococcus aureus; [2]) | zone of inhibition at 0.125 µg/mL (Escherichia coli; [1]) | zone of inhibition at 1000 µg/mL (Escherichia coli; [2]) | zone of inhibition at 0.125 µg/mL (Bacillus subtilis; [1]) | zone of inhibition at 1000 µg/mL (Bacillus subtilis; [2])

CC1(C)CCC23CC[C@@]4(C)C(CCC5[C@@]6(C)CCC(OP(=O)(O)O)C(C)(C)C6CC[C@]54C)C2C1OC3 (stereo partly drawn) [Allobetulin 3-phosphate, allobetulin-3-phosphate]
0 mm: zone of inhibition at 0.125 µg/mL (Staphylococcus aureus; [1]) | zone of inhibition at 0.125 µg/mL (Escherichia coli; [1]) | zone of inhibition at 0.125 µg/mL (Bacillus subtilis; [1])

CC1(C)CCC23CCC4(C)C(CCC5C6(C)CCC(OC(=O)CCC(=O)O)C(C)(C)C6CCC54C)C2C1OC3 (stereo not drawn) [Allobetulin 3-succinate, Allobetulin-3-succinate]
0 mm: Zone of inhibition Staphylococcus aureus (Staphylococcus aureus; [3]) | Zone of inhibition Escherichia coli (Escherichia coli; [3]) | Zone of inhibition Bacillus subtilis (Bacillus subtilis; [3])

CC1(C)CCC23CC[C@@]4(C)C(CCC5[C@@]6(C)CCC(OP(=O)(O)O)C(C)(C)C6CC[C@]54C)C2C1OC3=O (stereo partly drawn) [Allobetulin lactone phosphate, allobetulin lactone-3-phosphate]
0 mm: Zone of inhibition Staphylococcus aureus (Staphylococcus aureus; [1]) | Zone of inhibition Escherichia coli (Escherichia coli; [1]) | Zone of inhibition Bacillus subtilis (Bacillus subtilis; [1])

CC1(C)CCC23CC[C@@]4(C)C(CCC5[C@@]6(C)CC[C@H](O)C(C)(C)C6CC[C@]54C)C2C1OC3=O (stereo partly drawn) [Allobetulin lactone]
0 mm: zone of inhibition at 0.125 µg/mL (Staphylococcus aureus; 18 h) | zone of inhibition at 0.125 µg/mL (Escherichia coli; 18 h) | zone of inhibition at 0.125 µg/mL (Bacillus subtilis; 18 h)

CC1(C)CCC23CC[C@@]4(C)C(CCC5[C@@]6(C)CC[C@H](O)C(C)(C)C6CC[C@]54C)C2C1OC3 (stereo partly drawn) [Allobetulin]
0 mm: zone of inhibition at 1000 µg/mL (Staphylococcus aureus; [2]) | zone of inhibition at 1000 µg/mL (Escherichia coli; [2]) | zone of inhibition at 1000 µg/mL (Bacillus subtilis; [2])

CC1(C)CCC23CC[C@@]4(C)C(CCC5[C@@]6(C)CCC(=O)C(C)(C)C6CC[C@]54C)C2C1OC3 (stereo partly drawn) [Allobetulon]
0 mm: zone of inhibition at 0.125 µg/mL (Staphylococcus aureus; [1]) | zone of inhibition at 0.125 µg/mL (Escherichia coli; [1]) | zone of inhibition at 0.125 µg/mL (Bacillus subtilis; [1])

C=C(C)C1CCC2(COC(=O)CCCC(=O)O)CCC3(C)C(CCC4C5(C)CCC(O)C(C)(C)C5CCC43C)C12 (stereo not drawn) [Betulin 28-glutarate, Betulin-28-glutarate]
0 mm: zone of inhibition at 0.125 µg/mL (Staphylococcus aureus; [1]) | zone of inhibition at 0.125 µg/mL (Escherichia coli; [1]) | zone of inhibition at 0.125 µg/mL (Bacillus subtilis; [1])

C=C(C)[C@@H]1CC[C@]2(COC(=O)/C=C\C(=O)O)CC[C@]3(C)[C@H](CC[C@@H]4[C@@]5(C)CC[C@H](O)C(C)(C)[C@@H]5CC[C@]43C)[C@@H]12 [Betulin 28-maleate, Betulin-28-maleate]
0 mm: Zone of inhibition Staphylococcus aureus (Staphylococcus aureus; [4]) | Zone of inhibition Escherichia coli (Escherichia coli; [4]) | Zone of inhibition Bacillus subtilis (Bacillus subtilis; [4])

C=C(C)C1CCC2(COC(=O)CCC(=O)O)CC[C@@]3(C)C(CCC4[C@@]5(C)CCC(O)C(C)(C)C5CC[C@]43C)C12 (stereo partly drawn) [Betulin 28-succinate, Betulin-28-succinate]
0 mm: zone of inhibition at 1000 µg/mL (Staphylococcus aureus; [2]) | zone of inhibition at 1000 µg/mL (Escherichia coli; [2]) | zone of inhibition at 1000 µg/mL (Bacillus subtilis; [2])

C=C(C)C1CCC2(COC(=O)[C@@H](N)CCC(=O)OCc3ccccc3)CCC3(C)C(CCC4C5(C)CCC(OC(=O)[C@@H](N)CCC(=O)OCc6ccccc6)C(C)(C)C5CCC43C)C12 (stereo partly drawn) [Betulin Di-(L-glutamic acid γ-benzyl ester) ester]
0 mm: Zone of inhibition Staphylococcus aureus (Staphylococcus aureus; [1]) | Zone of inhibition Escherichia coli (Escherichia coli; [1]) | Zone of inhibition Bacillus subtilis (Bacillus subtilis; [1])
